The structures appear in SMILES notation. Bridge positions count the residues as written; N and C are the ends. Square brackets hold non-standard residues; d marks the D form. Peptide text beside a SMILES is read from it. * marks the point of attachment. Bip(4'-NHAc) = CC(=O)Nc1ccc(-c2ccc(C[C@H](N)C(=O)O)cc2)cc1; Phe(4-COOH) = N[C@@H](Cc1ccc(C(=O)O)cc1)C(=O)O; Bip = N[C@@H](Cc1ccc(-c2ccccc2)cc1)C(=O)O; Phe(3-Me) = Cc1cccc(C[C@H](N)C(=O)O)c1; Cha = N[C@@H](CC1CCCCC1)C(=O)O; Carboxymethyl = O=C(O)C*; NMeA = CN[C@@H](C)C(=O)O; Orn = NCCC[C@H](N)C(=O)O; Dab = NCC[C@H](N)C(=O)O

In assay [1] the target is T1, Alexa fluor-647 labeled human PD-L1-Ig binding to Jurkat cell line over-expressing human PD-1 (Homo sapiens, UniProt Q15116).
T1 construct: expressed in transfected cells; host or cells: Jurkat
T1 sequence (Q15116 25-288): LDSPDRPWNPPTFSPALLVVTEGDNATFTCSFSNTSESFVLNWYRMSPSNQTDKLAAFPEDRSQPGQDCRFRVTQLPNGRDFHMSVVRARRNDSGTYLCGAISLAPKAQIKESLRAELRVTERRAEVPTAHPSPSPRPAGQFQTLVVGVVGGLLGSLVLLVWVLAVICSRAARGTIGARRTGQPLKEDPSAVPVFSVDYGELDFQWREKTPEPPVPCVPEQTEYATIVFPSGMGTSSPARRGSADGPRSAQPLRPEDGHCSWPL
Nature of the assay: Jurkat-PD-1 Cell Binding High-Content Screening Assay (CBA): Method 3 (Alexa fluor-647 labeled PD-L1-Ig). Particulars: Jurkat-PD-1 cells, Alexa fluor-647 labeled PD-L1-Ig 177 nM; head μM; read-out: CBA Method 3 μM. In a few lines: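 Readout by high-content imaging of PFA-fixed, Hoechst-stained cells after 1 h with 177 nM (final) Alexa fluor-647 PD-L1-Ig. Compound was added first to hPD-1 Jurkat cells in RPMI plus 10% FCS for 2 h at 37 °C.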

For assay [2], the target named is T2, PD1-PDL1 protein-protein binding interaction [hPD1(25-167)-hIgG, hPD-L1 (19-239)-6xHis] (Homo sapiens, UniProt Q15116).
T2 construct: hPD1(25-167)-hIgG, BMS
T2 sequence (Q15116 25-167): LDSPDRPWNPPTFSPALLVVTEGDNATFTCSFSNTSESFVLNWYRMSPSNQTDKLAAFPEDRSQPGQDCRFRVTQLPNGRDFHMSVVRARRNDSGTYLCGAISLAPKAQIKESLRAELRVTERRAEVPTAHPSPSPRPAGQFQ
Nature of the assay: HTRF Assay (TR-FRET). Particulars: 5 nM hPD1-hIgG, 5 nM hPD-L1-6xHis, 24 hours at 25° C., head μM. Here is the method: A time-resolved fluorescence resonance energy transfer (TR-FRET) assay was employed to measure the inhibition of the PD1-PDL1 protein-protein binding interaction. The reaction buffer was prepared by mixing the HiBlock buffer and LANCE detection buffer (PerkinElmer, TRF1011F and CR97-100) at a 1:1 ratio. Assay reactions contained 5 nM human programmed cell death 1 [hPD1(25-167)-hIgG, BMS], 5 nM human programmed cell death ligand 1 [hPD-L1 (19-239)-6×His, BMS], in the presence of 1 nM LANCE Eu-W1024 Anti-Human IgG (Eu-anti hIgG, PerkinElmer, AD0074) and 20 nM SureLight Allophycocyanin-anti-6×His antibody (APC-anti-6×His, PerkinElmer, AD0059H). Test compounds were evaluated in a 10-point dose-response format with serial three-fold dilutions starting from a 2 uM top concentration. Reactions were carried out in a total volume of 10 uL in 384-well microtiter plates (Proxiplate white, PerkinElmer, 6008289). Plates were sealed and incubated for 24 hours at 25° C. After 24 hours, the TR-FRET signal was measured using a PerkinElmer EnVision multimode plate reader and the resulting ratiometric data set (signal at 665 nm/615 nm, multiplied by a factor of 10,000) was recorded. The concentration giving half-maximal inhibition (the IC50) was obtained by fitting the data to a four-parameter logistic equation using Graphpad Prism or Dotmatics.
In general terms: TR-FRET usually uses a lanthanide donor and a delayed reading to cut background.

Turning to `CC(=O)Nc1ccc(-c2ccc(C[C@@H]3NC(=O)CSC[C@@H](C(=O)N[C@@H](CCN)C(N)=O)NC(=O)[C@H](CCCN)NC(=O)[C@H](C(C)C)NC(=O)[C@H](CC4CCCCC4)NC(=O)[C@H](CCN)NC(=O)[C@@H](CC(C)C)NC(=O)[C@H](C)N(C)C(=O)[C@H](CCC(N)=O)NC(=O)[C@H](Cc4ccc(-c5ccccc5)cc4)NC(=O)[C@H](Cc4ccc(C(=O)O)cc4)NC(=O)[C@H](Cc4cccc(C)c4)NC(=O)[C@H](CC(=O)O)NC(=O)[C@H](Cc4ccc(OCC(=O)O)cc4)NC3=O)cc2)cc1` [Example 5173] ({CH2CO}-[Bip(4'-NHAc)]Y(Carboxymethyl)D[Phe(3-Me)][Phe(4-COOH)][Bip]Q[NMeA][dL][Dab][Cha]V[Orn]C[Dab]-NH2; thioether N-14), the IC50 amounted to 0.02 µM in assay [1] and 0.07 µM in assay [2].

Values taken from patent US20240409585A1, “MACROCYCLIC IMMUNOMODULATORS” (priority 2021, published 2024).
